ChEMBL document CHEMBL4359892, “Discovery of novel indolylarylsulfones as potent HIV-1 NNRTIs via structure-guided scaffold morphing” (Eur J Med Chem, 2019)

Assays:
[1] = Selectivity index, ratio of CC50 for human MT4 cells to EC50 for antiviral activity against HIV IIIB; format: toxicity; conditions: read-out: Ratio CC50/EC50
[2] = Cytotoxicity against human MT4 cells assessed as reduction in cell viability incubated for 5 days by MTT assay; format: cell-based
[3] = test system: Human immunodeficiency virus 1; assay: Antiviral activity against drug resistant HIV-1 RES056 harboring reverse transcriptase K103N/Y181C double mutant infected in human MT4 cells assessed as reduction in virus-induced cytopathic effect incubated for 5 days by MTT assay; format: functional, organism-based; conditions: Human immunodeficiency virus 1, RES056, MT4, 120 h
[4] = Selectivity index, ratio of CC50 for human MT4 cells to EC50 for antiviral activity against HIV RES056; format: toxicity; conditions: read-out: Ratio CC50/EC50
[5] = test system: Human immunodeficiency virus 1; assay: Antiviral activity against HIV-1 3B infected in human MT4 cells assessed as reduction in virus-induced cytopathic effect incubated for 5 days by MTT assay; format: functional, organism-based; conditions: Human immunodeficiency virus 1, 3B, MT4, 120 h

| Compound | selectivity ratio [1] | CC50 at 120 h [2] | EC50 [3] | selectivity ratio [4] | EC50 [5] |
| --- | --- | --- | --- | --- | --- |
| Cc1cc(C)cc(S(=O)(=O)c2c(C(=O)NC3CN(Cc4ccccc4F)C3)[nH]c3ccc(Cl)cc23)c1 | > 7810 | > 238 µM | 65.1 µM | > 4 | 30 nM |
| Cc1cc(C)cc(S(=O)(=O)c2c(C(=O)NCCP(=O)(O)O)[nH]c3ccc(Cl)cc23)c1 | > 1100 | > 237 µM | > 237 µM | – | 210 nM |
| Cc1cc(C)cc(S(=O)(=O)c2c(C(=O)NC3CN(S(C)(=O)=O)C3)[nH]c3ccc(Cl)cc23)c1 | > 15200 | > 252 µM | > 252 µM | – | 17 nM |
| Cc1cc(C)cc(S(=O)(=O)c2c(C(=O)NC3CNC3)[nH]c3ccc(Cl)cc23)c1 | 495 | 37.3 µM | ≥ 37.3 µM | < 1 | 74 nM |
| Cc1cc(C)cc(S(=O)(=O)c2c(C(=O)N[C@@H]3CCN(Cc4ccccc4F)C3)[nH]c3ccc(Cl)cc23)c1 | > 1860 | > 232 µM | > 232 µM | – | 120 nM |
| Cc1cc(C)cc(S(=O)(=O)c2c(C(=O)NC3CN(Cc4cccnc4)C3)[nH]c3ccc(Cl)cc23)c1 | 2480 | 36 µM | > 36 µM | < 1 | 15 nM |
| Cc1cc(C)cc(S(=O)(=O)c2c(C(=O)N[C@H]3CCN(Cc4n[nH]c(=O)n4C)C3)[nH]c3ccc(Cl)cc23)c1 | 2980 | 21.4 µM | ≥ 21.4 µM | < 1 | 7.2 nM |
| Cc1cc(C)cc(S(=O)(=O)c2c(C(=O)N[C@H]3CCN(Cc4ccccc4C#N)C3)[nH]c3ccc(Cl)cc23)c1 | > 1350 | > 229 µM | 174 µM | > 1 | 170 nM |
| Cc1cc(C)cc(S(=O)(=O)c2c(C(=O)NC3CN(Cc4ccccc4C#N)C3)[nH]c3ccc(Cl)cc23)c1 | > 18700 | > 235 µM | 66.8 µM | > 4 | 13 nM |
| Cc1cc(C)cc(S(=O)(=O)c2c(C(=O)N[C@@H]3CCN(Cc4cccnc4)C3)[nH]c3ccc(Cl)cc23)c1 | 627 | 36.5 µM | ≥ 36.5 µM | < 1 | 57 nM |
| Cc1cc(C)cc(S(=O)(=O)c2c(C(=O)N[C@H]3CCN(Cc4cccnc4)C3)[nH]c3ccc(Cl)cc23)c1 | 2010 | 22.8 µM | ≥ 22.8 µM | < 1 | 11 nM |
| Cc1cc(C)cc(S(=O)(=O)c2c(C(=O)N[C@@H]3CCNC3)[nH]c3ccc(Cl)cc23)c1 | – | 37.3 µM | ≥ 9.72 µM | < 1 | 49 nM |
| Cc1cc(C)cc(S(=O)(=O)c2c(C(=O)N[C@H]3CCN(Cc4ccccc4F)C3)[nH]c3ccc(Cl)cc23)c1 | 2580 | 215 µM | ≥ 215 µM | < 1 | 83 nM |
| Cc1cc(C)cc(S(=O)(=O)c2c(C(=O)NCCn3ccc(=O)[nH]c3=O)[nH]c3ccc(Cl)cc23)c1 | > 60 | > 265 µM | > 265 µM | – | 4420 nM |
| Cc1cc(C)cc(S(=O)(=O)c2c(C(=O)N[C@@H]3CCN(Cc4ccccc4C#N)C3)[nH]c3ccc(Cl)cc23)c1 | 2580 | ≥ 186 µM | > 186 µM | – | 53 nM |
| Cc1cc(C)cc(S(=O)(=O)c2c(C(=O)N[C@H]3CCNC3)[nH]c3ccc(Cl)cc23)c1 | 473 | 10 µM | ≥ 10 µM | < 1 | 21 nM |
| Cc1cc(C)cc(S(=O)(=O)c2c(C(=O)N[C@@H]3CCN(Cc4n[nH]c(=O)n4C)C3)[nH]c3ccc(Cl)cc23)c1 | 634 | 22.4 µM | ≥ 22.4 µM | < 1 | 35 nM |
